From ChEMBL document CHEMBL1201862, “PubChem BioAssay data set” (2004)
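All cell lines were grown in 96-well plates and treated with compound for 48 hours. At the GI50, growth is halved.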 Activity calls are given as the source filed them. Cut-off read from the data, not from the text of the source: active = GI50 up to about 1.1 µM and inactive = higher.

Columns and labels:
Test in all cases: growth of human tumour cells (NCI), 48 h
[1] = tested on: OVCAR-3
[2] = tested on: SNB-78
[3] = tested on: SNB-19
[4] = tested on: M19-MEL
[5] = tested on: OVCAR-4
[6] = tested on: RPMI-8226
[7] = tested on: UACC-62
[8] = tested on: HCC 2998
[9] = tested on: HOP-18
[10] = tested on: DMS-273
[11] = tested on: 786-0
[12] = tested on: SW-620
[13] = tested on: A498
[14] = tested on: SK-MEL-28
[15] = tested on: NCI-H23
[16] = tested on: NCI-H226
[17] = tested on: KM12
[18] = tested on: SK-MEL-2
[19] = tested on: KM-20L2
[20] = tested on: COLO 205
[21] = tested on: SF-268
[22] = tested on: ACHN
[23] = tested on: UO-31
[24] = tested on: EKVX
[25] = tested on: NCI-H460
[26] = tested on: SF-295
[27] = tested on: HOP-62
[28] = tested on: HCT-116
[29] = tested on: K562
[30] = tested on: Malme-3M
[31] = tested on: CCRF-CEM
[32] = tested on: LOX IMVI
[33] = tested on: RXF 631
[34] = tested on: HOP-92
[35] = tested on: XF498
[36] = tested on: OVCAR-8
[37] = tested on: IGROV-1
[38] = tested on: A549
[39] = tested on: TK-10
[40] = tested on: HCT-15
[41] = tested on: CAKI-1
[42] = tested on: SK-MEL-5
[43] = tested on: OVCAR-5
[44] = tested on: M14
[45] = tested on: SF-539
[46] = tested on: SN12C
[47] = tested on: HT-29
[48] = tested on: U-251
[49] = tested on: DLD-1
[50] = tested on: SNB-75
[51] = tested on: DMS-114
[52] = tested on: UACC-257
[53] = tested on: SK-OV-3
[54] = tested on: MOLT-4
[55] = tested on: HL-60
[56] = tested on: RXF 393
[57] = tested on: LXFL 529
[58] = tested on: SR

Question: What does the source list for Cc1ccccc1CN1CC=c2ccccc2=N1?
Answer: GI50 [1]: > 100 µM (inactive); GI50 [2]: > 100 µM (inactive); GI50 [3]: > 100 µM (inactive); GI50 [4]: > 100 µM (inactive); GI50 [5]: > 100 µM (inactive); GI50 [6]: > 100 µM (inactive); GI50 [7]: > 100 µM (inactive); GI50 [8]: > 100 µM (inactive); GI50 [9]: > 100 µM (inactive); GI50 [10]: > 100 µM (inactive); GI50 [11]: > 100 µM (inactive); GI50 [12]: > 100 µM (inactive); GI50 [13]: > 100 µM (inactive); GI50 [14]: > 100 µM (inactive); GI50 [15]: > 100 µM (inactive); GI50 [16]: > 100 µM (inactive); GI50 [17]: > 100 µM (inactive); GI50 [18]: > 100 µM (inactive); GI50 [19]: > 100 µM (inactive); GI50 [20]: > 100 µM (inactive); GI50 [21]: > 100 µM (inactive); GI50 [22]: > 100 µM (inactive); GI50 [23]: 50.1 µM (inactive); GI50 [24]: 93.5 µM (inactive); GI50 [25]: > 100 µM (inactive); GI50 [26]: > 100 µM (inactive); GI50 [27]: > 100 µM (inactive); GI50 [28]: > 10 µM (inactive); GI50 [29]: > 100 µM (inactive); GI50 [30]: > 100 µM (inactive); GI50 [31]: > 100 µM (inactive); GI50 [32]: > 100 µM (inactive); GI50 [33]: > 100 µM (inactive); GI50 [34]: > 100 µM (inactive); GI50 [35]: 68.1 µM (inactive); GI50 [36]: > 100 µM (inactive); GI50 [37]: > 100 µM (inactive); GI50 [38]: 93.5 µM (inactive); GI50 [39]: > 100 µM (inactive); GI50 [40]: > 100 µM; GI50 [41]: > 100 µM (inactive); GI50 [42]: 97.9 µM (inactive); GI50 [43]: > 100 µM (inactive); GI50 [44]: > 100 µM (inactive); GI50 [45]: > 100 µM (inactive); GI50 [46]: > 100 µM (inactive); GI50 [47]: > 100 µM (inactive); GI50 [48]: > 100 µM (inactive); GI50 [49]: > 100 µM (inactive); GI50 [50]: 50.9 µM (inactive); GI50 [51]: > 100 µM (inactive); GI50 [52]: > 100 µM (inactive); GI50 [53]: > 100 µM (inactive)

Question: Which results are given for CCOC(=O)NC(=O)c1cn(-c2ccc(CCOC(=O)CCCCCCCCC(=O)OCCc3ccc(-n4cc(C(=O)NC(=O)OCC)c(=O)[nH]c4=O)cc3)cc2)c(=O)[nH]c1=O?
Answer: GI50 [1]: > 100 µM (inactive); GI50 [2]: > 100 µM (inactive); GI50 [3]: 59 µM (inactive); GI50 [4]: > 100 µM (inactive); GI50 [5]: > 100 µM (inactive); GI50 [6]: > 100 µM (inactive); GI50 [7]: > 100 µM (inactive); GI50 [8]: > 100 µM (inactive); GI50 [9]: > 100 µM (inactive); GI50 [11]: > 100 µM (inactive); GI50 [12]: > 100 µM (inactive); GI50 [14]: > 100 µM (inactive); GI50 [15]: > 100 µM (inactive); GI50 [16]: > 100 µM (inactive); GI50 [17]: > 100 µM (inactive); GI50 [18]: > 100 µM (inactive); GI50 [19]: > 100 µM (inactive); GI50 [20]: > 100 µM (inactive); GI50 [21]: > 100 µM (inactive); GI50 [22]: > 100 µM (inactive); GI50 [23]: > 100 µM (inactive); GI50 [24]: > 100 µM (inactive); GI50 [25]: > 100 µM (inactive); GI50 [54]: > 100 µM (inactive); GI50 [26]: > 100 µM (inactive); GI50 [27]: > 100 µM (inactive); GI50 [55]: > 100 µM (inactive); GI50 [28]: > 100 µM (inactive); GI50 [56]: > 100 µM (inactive); GI50 [29]: > 100 µM (inactive); GI50 [30]: > 100 µM (inactive); GI50 [31]: > 100 µM (inactive); GI50 [32]: > 100 µM (inactive); GI50 [33]: > 100 µM (inactive); GI50 [34]: 26 µM (inactive); GI50 [35]: > 100 µM (inactive); GI50 [36]: > 100 µM (inactive); GI50 [37]: 76.4 µM (inactive); GI50 [38]: > 100 µM (inactive); GI50 [39]: 42.8 µM (inactive); GI50 [40]: > 100 µM; GI50 [57]: > 100 µM (inactive); GI50 [42]: > 100 µM (inactive); GI50 [43]: > 100 µM (inactive); GI50 [44]: > 100 µM (inactive); GI50 [45]: > 100 µM (inactive); GI50 [46]: > 100 µM (inactive); GI50 [47]: > 100 µM (inactive); GI50 [48]: 49.9 µM (inactive); GI50 [49]: > 100 µM (inactive); GI50 [51]: > 100 µM (inactive); GI50 [58]: > 100 µM (inactive); GI50 [52]: > 100 µM (inactive); GI50 [53]: > 100 µM (inactive)
